Common to all, as to assay type: cell-based, human
For experiment [1], the system named is MDA-MB-231 cells. The experiment is described as follows: Novelty detection of drug MoA on single-cell Chemical Painting data (LDA, Mahalanobis distance, isolation forest). Particulars: test compounds; for Prediction: MoA predicted as known class or novel; for Mean score: dynamic range [1, −1], below 0.1 detected as novel; for Outlier %: single-cell data predicted as outliers (novel). An excerpt: We specifically designed an algorithm for Chemical Painting to identify drugs with novel MoAs, using the dataset and model in drug MoA prediction as an annotated reference. In this algorithm, the first step is to calculate the Mahalanobis distance between single-cell data from test compound and each reference class in the trained LDA model. The class with the minimum distance represents the known drug closest to the test compound. Next, isolation forest, is introduced to determine whether the test compound is novel to the selected known drug class. The prediction output in this step is 1 as inliers (known) and −1 as outliers (novel) for each single-cell data from the test compound. […] Test compound with a mean prediction score below the threshold value is detected as novel.
(§1) Sample preparation for drug-treated cells with labeling. MDA-MB-231 cells were seeded on clean CaF2 substrates with 5×10^4 cells per well in cell culture media (DMEM, 10% FBS, 1% penicillin) overnight. Then the culture media was replaced by ^13C-amino acids DMEM with 50 μM azido-palmitic acid, 50 μM d34 oleic acid, either single drug at its IC50 concentration or drug combinations at chosen concentrations. Drugs were prepared in 100% DMSO and diluted to 0.1% DMSO in labeling media. For the control group, only cell labeling media with 0.1% DMSO was added (without any drugs). Cells were treated for 48 hrs. After that, cells were fixed by 4% PFA at room temperature for 15 min and washed three times with PBS buffer and five times with dd-H2O. The samples were then air-dried before imaging.
(§2) FTIR imaging. Agilent Cary 620 Imaging FTIR equipped with an Agilent 670-IR spectrometer and 128×128-pixels FPA mercury cadmium telluride (MCT) detector was used in the transmission mode. A background spectrum was collected on a clean CaF2 substrate using 128 scans at 8 cm-1 spectral resolution. Cell spectra were recorded using 64-128 scans at 8 cm-1 spectral resolution. A ×25 IR objective (pixel size, 3.3 um, 0.81 numerical aperture (NA)) was used for cell imaging.
Machine learning. The tests of all the machine learning classifiers were performed using Python (Scikit-learn). Specifically, single-cell data was split into 70% training and 30% testing with labels corresponding to drug MoAs. The hyper-parameters of each classifier were carefully tuned using RandomizedSearchCv in Scikit-learn. The performances of these classifiers were evaluated in the testing dataset using accuracy as the main metric. To test the performance of classifiers on batch effects, single-cell data collected from different batches were loaded as another testing dataset. For feature importances of LDA classifier, permutation feature importance (Scikit-learn) was used. The intrinsic feature importance values from random forest classifier were also extracted.
Novelty detection algorithm. In the first step, the Mahalanobis distances between the test compound and each reference class in the annotated dataset were calculated by home-built codes in python. Drug class with minimum distance was selected. Next, isolation forest, which is available in Python, was imported to predict whether single-cell data from the test compound is known (inliers) or novel (outliers) to the selected drug class. The mean of the prediction results from single-cell data is reported as mean prediction score.

For experiment [2], the system named is MDA-MB-231 cells. The experiment is described as follows: Chemical Painting: single-cell metabolic responses by FTIR imaging with three IR-active vibrational probes. To be noted: drug at its IC50 concentration, 48 hrs, compared with control. As for the experimental part:
The first step is to add the three vibrational probes and the tested drug at its IC50 concentration to the cell culture media and co-cultured for 48 hrs. After that, cells are fixed and air-dried. Then Fourier transformed infrared (FTIR) imaging, a modality of MIR imaging, was performed to collect the full spectral data of cells. The collection speed is around 2 cells/second for human cancer cells with sufficient co-scans (˜64 scans). In the following data analysis, quality test, baseline correction and data normalization were included for data preprocessing (Methods). Next, single-cell segmentation was performed with open-source software CellProfiler to generate masks. These masks can be further used to extract single-cell IR spectrum from the MIR imaging data, forming the single-cell biochemical profile. We then introduced a series of analytical methods for the downstream analysis, including machine learning, novelty detection and statistical methods to map cell phenotypes and identify drug MoAs. Overall, the workflow of Chemical Painting is straightforward in experimental operations and effected in single-cell data analysis, which laid the foundation for this method to reveal valuable insights toward phenotypic profiling and potential drug discovery.
Systematic sensitivity and generalizability evaluation of Chemical Painting toward a broad range of drugs: It remains unknown whether our method has sufficient sensitivity to differentially discriminate cell responses to different drugs. To evaluate its sensitivity we tested 13 drugs belonging to 9 different drug MoAs. These drugs can be separated into two main panels: one consists of drugs that inhibit general metabolism; another one contains drugs targeting specific proteins or interfering with particular metabolic pathways. The single-cell metabolic responses toward different drug treatment were visualized in the 3D scatter plots where x-axis represents saturated FA metabolism (azido-PA/CH2), y-axis represents unsaturated FA metabolism (d34OA/CH2), and z-axis represents protein synthesis (^13C amide I/(^13C amide I+^12C amide I)). The use of ratios is meant for more accurate quantification of metabolic activities. Each dot represents the metabolic responses of an individual cell in the plots.
as §1, §2
Data preprocessing. […]

Experiment [3] deals with MDA-MB-231 cells. The experiment is described as follows: Cell viability assay (Alamar blue) for drug IC50. Particulars: single drug, 48 hrs; for half of the IC50 values: concentration added in combination groups. An excerpt:
Another aspect to consider is how to ensure the cells are in a similar state under different categories of drug treatments. To achieve this, we measured the half maximal inhibitory concentration (IC50) of different drugs separately by cell viability assays in 48 hrs, in agreement with the probe culturing time. This method is commonly used in pharmaceutical studies to compare the effect of various products. Besides the experimental operations, data analysis is vital to the obtained large-scale data to map cell phenotypes after drug perturbation. We thus built a complete analytical pipeline for Chemical Painting, including data preprocessing, single-cell segmentation, single-cell biochemical profile extraction and downstream analysis.
Cell viability assay and drug IC50 calculus. The IC50 values of the drugs were determined by Alamar blue assay. Cells were seeded at 10,000 per well in 96-well plates. After 24 h, the cells were washed twice with phosphate buffered saline (PBS) and treated with drugs at different concentrations in cell culture media for 48 hrs. Each drug concentration has 6-8 replicates. After the drug treatments, cells were washed with PBS twice and the cell viability was determined by Alamar blue assay following the manufacturer's protocol (Invitrogen) using plate reader. The IC50 values were determined by fitting the data using a dose response model with variable Hill slope built in Prism.
(The colour change of resazurin is a common sign of viable cells or microbes.)

Where a name gives a salt, the structure may show the parent alone.

Regarding `CC(=O)O[C@H]1C(=O)[C@@]2(C)[C@H]([C@H](OC(=O)c3ccccc3)[C@]3(O)C[C@H](OC(=O)[C@H](O)[C@@H](NC(=O)c4ccccc4)c4ccccc4)C(C)=C1C3(C)C)[C@]1(OC(C)=O)CO[C@@H]1C[C@@H]2O` [Taxol], in the experiment with MDA-MB-231 cells [1], the Prediction result is on record as “Novel”, the Mean score is reported as −0.5052 and the Outlier % is 75.26%.
As for `COc1cccc2c1C(=O)c1c(O)c3c(c(O)c1C2=O)C[C@@](O)(C(=O)CO)C[C@@H]3O[C@H]1C[C@H](N)[C@H](O)[C@H](C)O1` [doxorubicin, doxorubicin hydrochloride], in the experiment with MDA-MB-231 cells [2], the “protein synthesis (13C amide I/(13C amide I+12C amide I))” value (“protein synthesis” below) is listed as “largely inhibited”, the “saturated FA metabolism (azido-PA/CH2)” value is reported as “largely inhibited” and the “unsaturated FA metabolism (d34OA/CH2)” value was “largely inhibited”.
Take `O=C(c1cc(Cc2n[nH]c(=O)c3ccccc23)ccc1F)N1CCN(C(=O)C2CC2)CC1` [olaparib]: in the experiment on MDA-MB-231 cells [2], the “protein synthesis” value was “significantly reduced”, the “saturated FA metabolism (azido-PA/CH2)” value was “significantly reduced” and the “unsaturated FA metabolism (d34OA/CH2)” value is “significantly reduced”.
For the compound TVB-3166, in the experiment on MDA-MB-231 cells [2], the “protein synthesis” value is reported as “slightly decreased”, the “saturated FA metabolism (azido-PA/CH2)” value is “significantly reduced” and the “unsaturated FA metabolism (d34OA/CH2)” value is “significantly reduced”.
`CCC(=O)CCCCC[C@@H]1NC(=O)[C@H]2CCCCN2C(=O)[C@H]([C@@H](C)CC)NC(=O)[C@H](Cc2cn(OC)c3ccccc23)NC1=O` [Apicidin]: in the experiment on MDA-MB-231 cells [1], the Mean score is listed as −0.5289 and the Outlier % is given as 76.45%.
`NC(=O)c1ccc(I)c([N+](=O)[O-])c1` [Iniparib, iniparib]: in the experiment with MDA-MB-231 cells [1], the Prediction entry is on record as “Novel”, the Mean score is −0.9923 and the Outlier % is 99.62%. Also, the Mean score result in the experiment with MDA-MB-231 cells [1] (listed as iniparib) was “quite negative”.
On to `CCC/C=C/C/C=C/C=C/C=N/NN=O` [triacsin-C, triacsin C], for which, in the experiment on MDA-MB-231 cells [2], the “protein synthesis” value was “remained at a similar level compared with the control group”, the “saturated FA metabolism (azido-PA/CH2)” value is listed as “significant decreases” and the “unsaturated FA metabolism (d34OA/CH2)” value is reported as “significant decreases”.
As for `C[C@@H]1C[C@@H]([C@H](O)CC2CC(=O)NC(=O)C2)C(=O)[C@@H](C)C1` [cycloheximide], in the experiment on MDA-MB-231 cells [2], the “protein synthesis” value is on record as “much lower”.
With `CC[C@H]1CN2CCc3cc(OC)c(OC)cc3[C@@H]2C[C@@H]1C[C@H]1NCCc2cc(OC)c(OC)cc21` [Emetine, emetine], in the experiment on MDA-MB-231 cells [1], the Prediction entry is recorded as “Protein”, the Mean score is reported as 0.6208 and the Outlier % is recorded as 18.96%. The Mean score result in the experiment with MDA-MB-231 cells [1] (listed as emetine) is recorded as “high”.
The compound `CS(=O)(=O)CCNCc1ccc(-c2ccc3ncnc(Nc4ccc(OCc5cccc(F)c5)c(Cl)c4)c3c2)o1` [lapatinib] returned an IC50 in the experiment with MDA-MB-231 cells [3] (Homo sapiens, MDA-MB-231, cell viability) of 2.14 µM. Further, the “half of the IC50 values” with MDA-MB-231 cells [3] is 1.12 µM.
Regarding `CO[C@H]1C[C@@H]2CC[C@@H](C)[C@@](O)(O2)C(=O)C(=O)N2CCCC[C@H]2C(=O)O[C@H]([C@H](C)C[C@@H]2CC[C@@H](OCCO)[C@H](OC)C2)CC(=O)[C@H](C)/C=C(\C)[C@@H](O)[C@@H](OC)C(=O)[C@H](C)C[C@H](C)/C=C/C=C/C=C/1C` [everolimus], the “half of the IC50 values” in the experiment on MDA-MB-231 cells [3] was determined as 14.5 µM.
For `CC(C)C[C@H](NC(=O)[C@H](Cc1ccccc1)NC(=O)c1cnccn1)B(O)O` [bortezomib], in the experiment with MDA-MB-231 cells [2], the “protein synthesis” value is given as “more evidently decreased”, the “saturated FA metabolism (azido-PA/CH2)” value is “reduced” and the “unsaturated FA metabolism (d34OA/CH2)” value is given as “reduced”.
Turning to `CC[C@]1(O)C[C@H]2CN(CCc3c([nH]c4ccccc34)[C@@](C(=O)OC)(c3cc4c(cc3OC)N(C=O)[C@H]3[C@@](O)(C(=O)OC)[C@H](OC(C)=O)[C@]5(CC)C=CCN6CC[C@]43[C@@H]65)C2)C1` [Vincristine], in the experiment with MDA-MB-231 cells [1], the Prediction result is “Novel”, the Mean score was −0.9466 and the Outlier % is 97.33%.
Take `COc1cccc2c1C(=O)c1c(O)c3c(c(O)c1C2=O)C[C@@](O)(C(C)=O)C[C@@H]3O[C@H]1C[C@H](N)[C@H](O)[C@H](C)O1` [Daunorubicin, Daunorubicin hydrochloride]: the Prediction entry with MDA-MB-231 cells [1] is reported as “DNA intercalation”. Besides, the Mean score with MDA-MB-231 cells [1] (hydrochloride) is listed as 0.8497; with MDA-MB-231 cells [1] (listed as daunorubicin, hydrochloride), “high”. For the same compound, the Outlier % in the experiment with MDA-MB-231 cells [1] was 7.515%.

A word on the IC50: it is the concentration needed to halve the response being measured. The low end stands for higher potency, the high end for lower potency.

Values taken from patent US20260088132A1, “CHEMICAL PAINTING” (The Trustees of Columbia University in the City of New York, priority 2023, published 2026).
